# Columns and labels:
# [1] = test system: striatal dopamine; experiment: MPTP dopamine depletion model (mice, sacrificed 72 h after MPTP); format: in vivo, C57BL/6J mice; conditions: for protection from MPTP neurotoxicity, % of control / protection from the neurotoxic action of MPTP (in words): 50 mg/kg; for Dopamine, nM/mg ± S.E.M., test compound / Protection, %: 50 mg/kg p.o.; for Dopamine, nM/mg ± S.E.M., test compound / Protection, % / % non-MPTP control (striatal dopamine): 15 mg/kg MPTP model; for Protection, %: versus methyl cellulose control (Standard); for % non-MPTP control (striatal dopamine) / Dopamine/mg protein ± S.E.M.: 30 mg/kg p.o.; for Dopamine/mg protein ± S.E.M.: 30 min before 15 mg/kg MPTP s.c.; for prevention of dopamine depletion following MPTP challenge (in words): Table 1 results, 30 mg/kg; for Degree of protection, % (MPTP dopamine depletion test): Table 3, dose not given
# Experimental: These findings have led to the development of an assay for agents effective in treating dopamine-associated neurodegenerative disorders, such as Parkinson's disease. In this assay, test animals are given an amount of MPTP adequate to severely depress their dopamine levels. Test compounds are administered to determine if they are capable of preventing the loss of dopamine in the test animals. To the extent that dopamine levels are retained, a compound can be considered to be an effective agent for slowing or delaying the course of neurodegenerative disease, e.g., Parkinson's disease. Dopamine Depletion Studies (MPTP Model) C57BL/6J mice were pretreated with either vehicle (1% methyl cellulose) or a drug (p.o.) 30 min before MPTP. MPTP was dissolved in isotonic saline (0.9%) and given subcutaneously as a single dose of 15 mg free base/kg body weight to produce a reduction in striatal dopamine to about 0.5 nanomoles/mg protein. Groups of mice (n=8-10 per group) received either vehicle plus saline, vehicle plus MPTP, or drug plus MPTP. Seventy two hours after receiving MPTP, mice were sacrificed using cervical dislocation and the striata were excised. The tissue was homogenized in 0.4 N perchloric acid, centrifuged, and the supernatant analyzed by high performance liquid chromatography/electro-chemical detection (HPLC/ED) for dopamine levels. Supernatants were stored in a -90° C. freezer between the time of collection and analysis. The drugs were combined with methyl cellulose and were homogenized in water for dosing. The dosage amount ranged from 10 to 50 mg/kg for CPI1160, CPI1189 and CPI1234, and from 50 to 100 mg/kg for CPI1020.
# [2] = molecular target: T1, Aβ(1-40) (Homo sapiens, UniProt P05067); experiment: Aβ(1-40) β-pleated sheet formation, Thioflavin T fluorescence; format: biochemical; conditions: Aβ(1-40) 3 μg, PBS pH 6.0, 4 hours, read-out: % Protection (β-pleated sheet formation)
# T1 construct: aggregated fibrils of synthetic Aβ(1-40)
# Text: Effect of Benzamides on Aβ(1-40) β-Pleated Sheets Formation: Detection of Amyloid Aggregation in Solution by Thioflavin T Fluorescence Spectra
# Several assays have been developed to assess the activity of compounds as agents for the treatment of Alzheimer's disease.
# Thioflavin T (ThT) rapidly associates with β pleated sheets particularly the aggregated fibrils of synthetic Aβ(1-40), giving rise to a new excitation maximum at 440 nm and enhanced emission at 490 nm. According to this principle, agents which could delay or reverse the formation of such association might be of therapeutic benefit.
# Experiments were performed in 96 well plates and the fluorescence changes were evaluated using Fluorescence plate reader-CytoFluor II. Briefly, into each well was aliquoted 95 μl of ThT (3 μM) prepared in PBS (pH 6.0), 2 μl of NRT (10 μM) prepared in 0.05% of methylcellulose in PBS (pH 6.0), and 3 μl of Aβ(1-40)(3 μg) prepared with dH2 O. The fluorescence measurement began when Aβ(1-40) was added and continued for 4 hours at which the aggregation reached a plateau. The % protection of β-pleated sheet formation was calculated from the relative fluorescence unit difference between aggregation in the presence and in the absence of test compounds.
# [3] = test system: striatal dopamine; experiment: Long term protective effect test in the MPTP model (sacrifice 3 or 14 days after dosing); format: in vivo, C57BL/6J mice
# Experimental: C57BL/6J mice were pretreated with either vehicle (1% methyl cellulose) or a drug (p.o.) 30 min before MPTP. MPTP was dissolved in isotonic saline (0.9%) and given subcutaneously as a single dose of 15 mg free base/kg body weight to produce a reduction in striatal dopamine to about 0.5 nanomoles/mg protein. Groups of mice (n=8-10 per group) received either vehicle plus saline, vehicle plus MPTP, or drug plus MPTP. Seventy two hours after receiving MPTP, mice were sacrificed using cervical dislocation and the striata were excised. The tissue was homogenized in 0.4 N perchloric acid, centrifuged, and the supernatant analyzed by high performance liquid chromatography/electro-chemical detection (HPLC/ED) for dopamine levels. Supernatants were stored in a -90° C. freezer between the time of collection and analysis.
# Additional studies were carried out to determine the long-term effect on dopamine depletion of the compounds of the invention. Using the general test method described above, C57BL/6J mice were pretreated with either vehicle or test compound and MPTP and then sacrificed either 3 or 14 days after dosing.
# [4] = In vivo biotransformation of CPI1020 (metabolite in blood after oral administration); conditions: rats and mice, CPI1020 administered orally
# Text: Commonly owned U.S. Pat. No. 5,472,983, referred to above, discloses several benzamides useful in treating neurodegenerative diseases based on their protective action in the MPTP mouse model of Parkinson's disease. […] This compound is likely formed in the body by reduction of the ring nitro of CPI1020 to an amino moiety (CPI1160) followed by acetylation of the amino function.
# [5] = test system: striatal dopamine; experiment: 6-Hydroxydopamine dopamine depletion model; format: in vivo, male Sprague Dawley rats; conditions: for Test side as percent of control side: right striatum injected with 6-hydroxydopamine
# Experimental: Another assay for agents effective in treating dopamine-associated neurodegenerative disorders has been developed. In this assay, the striatum of test animals is injected with the neurotoxicant, 6-hydroxydopamine. 6-Hydroxydopamine has a dopamine-depleting action and is widely accepted as a model for these conditions. Test compounds are administered to determine if they are capable of preventing or reducing the loss of dopamine in the test animals. Again, to the extent that dopamine levels are retained, a compound can be considered an effective agent.
# Tests were conducted to assess the ability of CPI-1189 to protect against 6-hydroxydopamine-induced damage. This is a widely accepted model for Parkinson's disease in which 6-hydroxydopamine is believed to produce its toxic effects by inducing oxidative stress. 6-hydroxydopamine has been used extensively since the 1960's as a neurotoxicant. Because 6-hydroxydopamine primarily affects catecholaminergic neurons, it has been mainly used for the experimental study of Parkinson's disease. The compound has had widespread use as a means of administering unilateral lesions in the nigrastriatal system. Animals treated with this toxin show biochemical and behavioral alterations that can be measured and probed pharmacologically to assess both the severity of the lesion and to determine the effect of potential therapeutic interventions.
# The protective dose response of CPI-1189 to 6-hydroxydopamine-induced damage to the nigrastriatal system was determined. Damage to the nigrastriatal system was measured in terms of striatal dopamine levels.
# Acclimated male Sprague Dawley rats, 55 to 120 days of age were used.
# 6-hydroxy-dopamine (Research Biochemicals Incorporated) was prepared in a 0.9% NaCl solution containing 0.1 mg/ml ascorbic acid on the morning of the experiment. […]
# Immediately following sacrifice, dissected striatal tissue was collected and analyzed by HPLC/EC […] with the results shown in Table 5.
# T1 sequence (P05067 672-711 limits assumed): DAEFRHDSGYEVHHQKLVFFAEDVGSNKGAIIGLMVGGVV
Molecule,inhibition at 10 µM [2] [%],% non-MPTP control (striatal dopamine) [1] [%],Dopamine/mg protein ± S.E.M. [1],prevention of dopamine depletion following MPTP challenge (in words) [1],"Degree of protection, % (MPTP dopamine depletion test) [1] [%]",further results
"CC(C)(C)NC(=O)c1ccc([N+](=O)[O-])cc1 [CPI1020, N-tert-butyl-4-nitrobenzamide, reference compound]",,,,,,"protection from MPTP neurotoxicity, % of control [1]: 56 % of control; protection from the neurotoxic action of MPTP (in words) [1]: not as effective; Dopamine, nM/mg ± S.E.M., test compound [1]: 0.58 ± .14 nM/mg; Protection, % [1]: 56%"
"CC(C)NC(=O)c1ccc([N+](=O)[O-])cc1 [CPI1026, N-iso-propyl-4-nitrobenzamide]",14.4 ± 14.4,,,,,
"CCC(C)(C)NC(=O)c1ccc([N+](=O)[O-])cc1 [CPI1033, N-tert-amyl-4-nitrobenzamide]",31.7 ± 3.5,,,,,
"CC(C)(C)NC(=O)c1ccc(N)cc1 [CPI1160, N-tert-butyl4-aminobenzamide]",,93.9,1.25 ± .05 /MG PROTEIN,effective in preventing dopamine depletion,94,
"CC(=O)Nc1ccc(C(=O)NC(C)(C)C)cc1 [CPI1189, N-tert-butyl-4-acetamidobenzamide]",48.3 ± 10.1,89.7,1.37 ± .14 /MG PROTEIN,effective in preventing dopamine depletion,,"Striatal dopamine, percent of methyl cellulose/saline control ([3]; 3 Day Sac): 100%; Striatal dopamine, percent of methyl cellulose/saline control ([3]; 14 Day Sac): 96.7%; protection against MPTP induced dopamine depletion (in words) ([3]; sacrificed three days and fourteen days post MPTP): able to protect against MPTP induced dopamine depletion; in vivo biotransformation product of CPI1020 found in blood (in words) [4]: found in the blood of rats and mice; protection from MPTP neurotoxicity, % of control [1]: 105 % of control; protection from the neurotoxic action of MPTP (in words) [1]: complete protection; Dopamine, nM/mg ± S.E.M., test compound [1]: 1.57 ± .11 nM/mg; Protection, % [1]: 105%; potency relative to CPI1020 in protecting mice from dopamine reduction in the striatum ([1]; s.c. MPTP): approximately 10 times; Test side as percent of control side ([5]; 50 mg/kg oral): 72.82 ± 8.32%; Test side as percent of control side ([5]; 100 mg/kg oral): 77.61 ± 13.5%; protection against 6-hydroxydopamine induced dopamine depletion (in words) ([5]; rat, in vivo): able to protect against 6-hydroxydopamine induced dopamine depletion"
"CC(=O)Nc1ccc(C(=O)NC(C)C)cc1 [CPI1232, N-iso-propyl-4-acetamidobenzamide]",,,,,70,
"CCC(C)(C)NC(=O)c1ccc(NC(C)=O)cc1 [CPI1233, N-tert-amyl-4-acetamidobenzamide]",,,,,40,
"CC(=O)Nc1cccc(C(=O)NC(C)(C)C)c1 [CPI1234, N-tert-butyl-3-acetamidobenzamide]",,76.7,1.02 ± .05 /MG PROTEIN,effective in preventing dopamine depletion,77,
N-methylcyclopropyl-4-acetamidobenzamide [CPI1241],,,,,40,
